Consider 15 compounds from patent publication US5523303A, “Trisubstituted cycloalkane derivatives and process for the preparation thereof” (Egis Gyogyszergyar Rt., priority 1993, dated 1996).

Read-outs that look alike come from different tables or passages of the source.

In data set [1] the test system is erosion of the stomach wall. The data set can be described thus: Cytoprotective effect: inhibition of ethanol-induced erosion of the stomach wall on rats (method of Robert). The class given is in vivo. The following applies: for ED50: Rattus norvegicus, po; for Ratio of acid-secretion inhibition and erosion inhibition: ratio of the ED50 values. The method, then:
3. The cytoprotective effect was determined on rats according to the method of Robert [Robert, A.: Cytoprotection by prostaglandins. […] Rats weighing 200 to 250 g were used as test animals. 1 cm^3 of abs. ethanol was introduced to the stomach to produce an erosion of the stomach wall. The length and frequency of the lesions (erosion index and frequency) were measured and the percentage inhibition of lesion formation compared with vehicle-treated animals was calculated.

The nature of data set [2]: Acute toxicity on mice (method of Lichtfield and Wilcoxon), LD50. Conditions: mouse, in vivo, po, 14 days observation. The method, then:
The test was carried out according to the method of Lichtfield and Wilcoxon [Lichtfield, J. T. and Wilcoxon, F. W.: J. Pharmacol. Exp. Ther., 96, 99 (1949)] by using white mice belonging to the CFLP strain and weighing 10 to 22 g, 10 animals per dose. The test compounds were administered orally in a volume of 20 cm3 /kg.

The next data set has as its target T1, H^+ K^+ -ATP-ase (Sus scrofa, UniProt P19156).
T1 construct: on partially purified pig's microsome specimen; from tissue; host or cells: pig stomach, partially purified microsomes
As to the kind of experiment: H+/K+-ATP-ase inhibition on partially purified pig's microsome specimen (method of Rabon and Sachs). The class given is biochemical. How it is done: 1. H^+ /K^+ -ATP-ase inhibition on pig'stomach. The test was carried out according to the method of Rabon and Sachs [E. C. Rabon, W. B. I. and G. Sachs: Preparation of gastric H^+ /K^+ -ATP-ase. Methods in Enzymology, 157, 649-651 (1988)]. The activity of the prepared enzyme was measured both in the presence and in the absence of K^+ ions. The difference in the liberation of phosphorus representing the activity of the enzyme was measured.

In the next data set the test system is gastric-acid-secretion. The data set can be described thus: Gastric-acid-secretion inhibition on rats (method of Shay et al.). The format is in vivo. Conditions: Rattus norvegicus, po, read-out: Acid-secretion inhibition, ED50. How it is done:
2. […] The liberated gastric acid content was determined by titration 4 hours after the ligature of the duodenum.

A short description of data set [3]: Acute toxicity on mice (method of Lichtfield and Wilcoxon), LD50. The following applies: mouse, in vivo, ip, 14 days observation.
The test system of the next data set is beta-adrenergic. Conditions: prior art; cited from earlier work.
The next data set deals with lipid level. The following applies: prior art; cited from earlier work.
The conditions of data set [4]: prior art; cited from earlier work.
Where [5] appears, read: rats, p.o., 4 hours after ligature.

T1 sequence (P19156 2-1034 limits assumed): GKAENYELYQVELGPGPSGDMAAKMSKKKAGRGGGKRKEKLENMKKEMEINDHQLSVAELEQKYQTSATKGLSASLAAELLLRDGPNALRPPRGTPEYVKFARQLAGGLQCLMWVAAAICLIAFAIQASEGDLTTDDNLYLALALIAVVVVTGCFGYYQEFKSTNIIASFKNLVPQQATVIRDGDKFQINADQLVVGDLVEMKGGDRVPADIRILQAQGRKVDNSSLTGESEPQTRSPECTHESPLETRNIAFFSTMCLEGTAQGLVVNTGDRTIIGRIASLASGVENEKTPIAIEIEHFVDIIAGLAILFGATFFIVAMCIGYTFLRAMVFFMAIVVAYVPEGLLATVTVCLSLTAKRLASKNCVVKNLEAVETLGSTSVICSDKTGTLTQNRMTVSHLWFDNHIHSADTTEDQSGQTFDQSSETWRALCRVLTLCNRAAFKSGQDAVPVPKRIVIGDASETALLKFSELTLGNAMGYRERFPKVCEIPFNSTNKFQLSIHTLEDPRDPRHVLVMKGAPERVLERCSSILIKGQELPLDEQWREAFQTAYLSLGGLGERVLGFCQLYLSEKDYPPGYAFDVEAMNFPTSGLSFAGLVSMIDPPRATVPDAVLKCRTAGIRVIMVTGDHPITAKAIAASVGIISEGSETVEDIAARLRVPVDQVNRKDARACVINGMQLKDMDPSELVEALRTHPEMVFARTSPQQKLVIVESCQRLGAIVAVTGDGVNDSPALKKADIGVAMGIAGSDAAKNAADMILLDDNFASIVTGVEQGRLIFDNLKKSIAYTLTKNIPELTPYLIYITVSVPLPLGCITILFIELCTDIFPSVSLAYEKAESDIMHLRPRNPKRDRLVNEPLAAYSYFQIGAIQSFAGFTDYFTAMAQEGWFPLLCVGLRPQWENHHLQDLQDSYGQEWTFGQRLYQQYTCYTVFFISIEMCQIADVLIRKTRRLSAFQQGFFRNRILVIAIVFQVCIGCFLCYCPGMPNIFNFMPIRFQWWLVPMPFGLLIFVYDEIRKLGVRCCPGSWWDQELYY
T1 sequence (P18434 whole entry partner): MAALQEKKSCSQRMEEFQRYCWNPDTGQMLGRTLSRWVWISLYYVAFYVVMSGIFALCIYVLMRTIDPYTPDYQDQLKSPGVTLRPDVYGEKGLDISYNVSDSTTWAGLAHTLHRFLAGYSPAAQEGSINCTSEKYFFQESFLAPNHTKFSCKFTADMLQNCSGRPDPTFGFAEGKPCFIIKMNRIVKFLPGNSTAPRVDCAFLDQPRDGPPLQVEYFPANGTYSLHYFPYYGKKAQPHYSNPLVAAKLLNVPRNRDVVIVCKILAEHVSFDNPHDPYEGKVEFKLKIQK

Regarding `CC(CO/N=C1/C(=C/c2ccc(F)cc2)CCCC1C)CN(C)C` (racemic) [Example 9, (R,S)-6-(E)-(4-Fluorophenylmethylene)-2-methyl-1-(E)-[3-(dimethylamino)-2-methylpropoxyimino]-cyclohexane], the ED50 in data set [1] (abs. ethanol) was 1.2 mg/kg; in the data set with gastric-acid-secretion (setting [5]), 30 to 120 mg/kg. In data set [1] (p.o.), the “Ratio of acid-secretion inhibition and erosion inhibition” value was 25-100. For the same compound, the LD50 at 336 h was 600 mg/kg in data set [2] and about 300 mg/kg in data set [3]. The compound also gave an IC50 against H^+ K^+ -ATP-ase of over 30 µM.

For the compound `CCCCCC1CCCC(=C\c2ccc(F)cc2)/C1=N/OCCN1CCN(Cc2ccccc2)CC1` (racemic) [Example 31, (R,S)-6-(E)-(4-Fluorophenylmethylene)-2-pentyl-1-(E)-[2-(4-phenylmethyl-1-piperazinyl)-ethoxyimino]-cyclohexane], the 50% effective dose (ED50) in data set [1] (abs. ethanol) is 3.9 mg/kg; with gastric-acid-secretion (setting [5]) it was 200 mg/kg. Further, the “Ratio of acid-secretion inhibition and erosion inhibition” value in data set [1] (p.o.) is 50. Further, the LD50 at 336 h was over 1000 mg/kg in data set [2] and over 300 mg/kg in data set [3]. The same compound yielded an IC50 at H^+ K^+ -ATP-ase of over 30 µM.

Take `CCCCCCC1CCCC(=C\c2ccccc2OC)/C1=N/OCCN(CC)CC` (racemic) [Example 34, (R,S)-6-(E)-(2-Methoxyphenylmethylene)-2-hexyl-1-(E)-[2-(diethylamino)-ethoxyimino]-cyclohexane]: the ED50 in data set [1] (abs. ethanol) turned out to be 1.4 mg/kg; with gastric-acid-secretion (setting [5]), 103 mg/kg. Further, in data set [1] (p.o.), the “Ratio of acid-secretion inhibition and erosion inhibition” value came to 73.4. In addition, the LD50 at 336 h in data set [2] was about 1000 mg/kg; in data set [3] it was 88 mg/kg. This compound also showed a half-maximal inhibitory concentration (IC50) against H^+ K^+ -ATP-ase of 5 µM.

On to `CCCCCCCC1CCCC(=C\c2ccc(F)cc2)/C1=N/OCCN(C)C` (racemic) [Example 35, (R,S)-6-(E)-(4-Fluorophenylmethylene)-2-heptyl-1-(E)-[2-(dimethylamino)-ethoxyimino]-cyclohexane], for which the 50% effective dose (ED50) was 2.9 mg/kg in data set [1] (abs. ethanol) and under 200 mg/kg in the data set on gastric-acid-secretion (setting [5]). Further, in data set [1] (p.o.), the “Ratio of acid-secretion inhibition and erosion inhibition” value is reported as at most 70. Moreover, the LD50 at 336 h is over 1000 mg/kg in data set [2] and 100 to 300 mg/kg in data set [3].

Consider `CCCC1CCCCC(=C\c2ccc(Cl)cc2)/C1=N/OCCN(CC)CC` (racemic) [Example 40, (R,S)-7-(E)-(4-Chlorophenylmethylene)-2-propyl-1-(E)-[2-(diethylamino)-ethoxyimino]-cycloheptane], for which the 50% effective dose (ED50) in data set [1] (abs. ethanol) stood at 2.6 mg/kg; in the data set on gastric-acid-secretion (setting [5]), 52.9 mg/kg. Also, the “Ratio of acid-secretion inhibition and erosion inhibition” value in data set [1] (p.o.) is reported as 20. Also, the 50% lethal dose (LD50) at 336 h in data set [2] is over 1000 mg/kg; in data set [3], 100 to 300 mg/kg. This compound displayed a half-inhibitory concentration (IC50) against H^+ K^+ -ATP-ase of 7 µM.

As for `CCN(CC)CCO/N=C1/C(=C/c2ccc(Cl)c(Cl)c2)CCCC1C` (racemic) [Example 41, (R,S)-6-(E)-(3,4-Dichlorophenylmethylene)-2-methyl-1-(E)-[2-(diethylamino)-ethoxyimino]-cyclohexane], the values for the LD50 at 336 h in data set [2] and in data set [3] were over 1000 mg/kg and 100 to 300 mg/kg, respectively. Moreover, on H^+ K^+ -ATP-ase, the IC50 came out at 17 µM.

On to `CCCC1CCCCC(=C\c2ccc(Cl)cc2)/C1=N/OCC(O)CN1CCCC1` (racemic) [Example 44, (R,S)-2-Propyl-7-(E)-(4-chlorophenylmethylene)-1-(E)-[2-hydroxy-3-(N-pyrrolidinylpropoxyimino)]-cycloheptane], for which the 50% effective dose (ED50) was 1.6 mg/kg in data set [1] (abs. ethanol) and 50 to 200 mg/kg with gastric-acid-secretion (setting [5]). Besides, the median lethal dose (LD50) at 336 h in data set [2] is over 1000 mg/kg; in data set [3] it was 100 to 300 mg/kg. On H^+ K^+ -ATP-ase, the half-maximal inhibitory concentration (IC50) is 10 µM.

In the case of `CN/C(=N/CCSCc1nc[nH]c1C)NC#N` [Cimetidine, reference compound], the median effective dose (ED50) was 100 to 200 mg/kg in data set [1] (abs. ethanol) and 59.1 mg/kg in the data set on gastric-acid-secretion (4 h). The “Ratio of acid-secretion inhibition and erosion inhibition” value in data set [1] (p.o.) is given as 0.3-0.6.

As for `CC(=NOCC(O)CNC(C)(C)C)C1CC1` (stereo not drawn) [Falintolol], in the data set on beta-adrenergic, the beta-adrenergic blocking activity result is reported as “exhibit beta-adrenergic blocking activity”.

Regarding `CC(C)(C)NCC(O)CON=C1c2ccccc2-c2ccccc21` (stereo not drawn) [IPS-339], the beta-adrenergic blocking activity entry in the data set on beta-adrenergic was “exhibit beta-adrenergic blocking activity”.

As to `COc1ccc2[nH]c([S+]([O-])Cc3ncc(C)c(OC)c3C)nc2c1` (stereo not drawn) [Omeprazole, reference compound], the results for the ED50 (in data set [1] (abs. ethanol); in the data set on gastric-acid-secretion (setting [5])) were 4.5 mg/kg and 3.9 mg/kg, respectively. In data set [1] (p.o.), the “Ratio of acid-secretion inhibition and erosion inhibition” value is given as 0.9.

For the compound `OC(CON=Cc1ccc(Cl)cc1)CN1CCN(c2ccccc2Cl)CC1` (stereo not drawn) [Peraclopon], the lipid level lowering entry in the data set with lipid level was “lipid level lowering agent”.

Turning to `COc1cccc(C=NOCC(O)CN2CCN(c3ccccc3OC)CC2)c1` (stereo not drawn) [Peradoxime], the hypotensive effect entry in data set [4] is given as “has a hypotensive effect”.

In the case of `CN1CCN(CC(=O)N2c3ccccc3C(=O)Nc3cccnc32)CC1` [Pirenzepine, reference compound], the 50% effective dose (ED50) is 18.6 mg/kg in data set [1] (abs. ethanol) and 7.9 mg/kg with gastric-acid-secretion (setting [5]). Besides, in data set [1] (p.o.), the “Ratio of acid-secretion inhibition and erosion inhibition” value came to 0.4.

The compound Sucralfate [reference compound] displayed an Ethanol erosion ED50 in data set [1] (p.o., abs. ethanol) of 69 mg/kg.
